The values below come from patent publication US8080664B2, “Use of compounds as inhibitors for Helicobacter flavodoxin” (Universidad De Zaragoza, priority 2007, dated 2011).

The target in test [1] is T1, H. pylori flavodoxin (Helicobacter pylori, UniProt O25776).
T1 construct: made in house; host or cells: E. coli BL21 (flavodoxin, pET28a); E. coli JVQ2 (PFOR); E. coli BL21(DE3) (FqrB)
T1 sequence (O25776 1-164): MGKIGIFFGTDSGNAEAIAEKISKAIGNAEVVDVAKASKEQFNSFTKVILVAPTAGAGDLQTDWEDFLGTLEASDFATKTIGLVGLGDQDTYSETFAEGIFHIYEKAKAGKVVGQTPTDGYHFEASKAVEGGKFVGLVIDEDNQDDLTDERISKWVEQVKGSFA
The test can be described thus: Inhibition assay of sequential electron transfer pyruvate/PFOR/flavodoxin/FqrB/NADP+ (NADPH formation at 340 nm). Format: biochemical. The settings on record: 50 μM compound; anaerobic; 10 μM Fld; absorbance at 340 nm. The text has this:
Flavodoxin is an essential protein for Helicobacter pylori survival as it participates in a fundamental reaction for obtaining energy from the oxidative decarboxylation of pyruvate. In this reaction, flavodoxin transfers electrons between the PFOR enzyme and the FqrB enzyme, which releases them to NADP^+.
The sequential reaction of electron transfer between pyruvate, PFOR, flavodoxin, FqrB and NADP^+ (activity assay) was followed spectroscopically by the appearance of the signal at 340 nm with the formation of NADPH. The reaction mixture contained 100 mM potassium phosphate pH 7, 10 mM pyruvate, 0.18 mM CoA, 1 mM MgCl, 0.3 mM NADP^+, 0.09 mg/ml PFOR, 10 μM Fld and 0.15 μM FqrB. The mixture, except CoA, was placed in a cuvette specially designed for anaerobic conditions. Oxygen was removed by means of 5 minute cycles with alternate flows of vacuum and argon. The reaction was started by the addition of 0.18 mM coenzyme A (CoA) that was held in a compartment inside the same cuvette. The reaction finished 15 minutes after adding the CoA reagent.
The inhibition assays were carried out in the same conditions as the activity assays previously described, adding an additional 50 μM of the disclosed compound of the general formula shown in (II) to the reaction cuvette.

Test [2] addresses T2, flavodoxin of H. pylori (Helicobacter pylori, UniProt O25776).
T2 construct: made in house; host or cells: E. coli BL21 (pET28a)
The test is described as follows: Isothermal titration calorimetry (ITC) binding to flavodoxin. As to conditions: 50 mM EPPS buffer, pH 9, 7% DMSO; protein around 20 μM; read-out: affinity for flavodoxin (ITC). How it is done: The specific binding of the inhibitors of the disclosed compounds to flavodoxin of H. pylori was confirmed by isothermal titration calorimetry (ITC). This technique not only measures the affinity of each compound for the target protein, but also determines the contribution of the enthalpic and entropic components of binding.
The binding experiments were carried out in 50 mM EPPS buffer, pH 9 with 7% DMSO, with the inhibitor in the injection syringe at a concentration of 300-500 μM, and the protein around 20 μM in the measurement cell.

For the compound `O=[N+]([O-])C1=Cc2cc(Cl)cc(Cl)c2OC1c1ccc(F)cc1` (centres unmarked) [formula (II)], in test [1], the “inhibition of NADPH formation (pyruvate oxidative decarboxylation reaction)” value is “almost total”. Also, the Kd in test [2] turned out to be 1600 nM.
